# In PubChem BioAssay (NCI):
#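 Tested at 5 concentrations; 48 h exposure; 96-well plates; endpoints linearly interpolated, else capped at highest concentration. GI50 marks 50% less growth. At the TGI there is no net growth.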
# Columns and labels:
# Experiment in all cases: growth of human tumour cells (NCI), 48 h
# RPMI-8226 leukemia = tested on: RPMI-8226 leukemia
# U251 CNS = tested on: U251 CNS
# HCT-15 colon = tested on: HCT-15 colon
# OVCAR-3 ovarian = tested on: OVCAR-3 ovarian
# SNB-19 CNS = tested on: SNB-19 CNS
# SN12C renal = tested on: SN12C renal
# IGROV1 ovarian = tested on: IGROV1 ovarian
# A549 NSCLC = tested on: A549 NSCLC
# NCI-H522 lung = tested on: NCI-H522 lung
# 786-0 renal = tested on: 786-0 renal
Compound,GI50 (RPMI-8226 leukemia),TGI (RPMI-8226 leukemia),GI50 (U251 CNS),TGI (U251 CNS),GI50 (HCT-15 colon),TGI (HCT-15 colon),GI50 (OVCAR-3 ovarian),TGI (OVCAR-3 ovarian),GI50 (SNB-19 CNS),TGI (SNB-19 CNS),GI50 (SN12C renal),TGI (SN12C renal),GI50 (IGROV1 ovarian),TGI (IGROV1 ovarian),GI50 (A549 NSCLC),TGI (A549 NSCLC),GI50 (NCI-H522 lung),TGI (NCI-H522 lung),GI50 (786-0 renal),TGI (786-0 renal)
O=C(C[P+](c1ccccc1)(c1ccccc1)c1ccccc1)C[P+](c1ccccc1)(c1ccccc1)c1ccccc1,0.271 µM,1.81 µM,0.828 µM,2.23 µM,0.241 µM,1.6 µM,0.296 µM,0.807 µM,1.31 µM,2.78 µM,0.682 µM,2.14 µM,0.774 µM,2.56 µM,0.81 µM,3.04 µM,0.141 µM,0.325 µM,0.496 µM,1.16 µM
C/C=C/COC(=O)CO[N+](=O)[O-],,> 100 µM,,> 100 µM,,> 100 µM,,> 100 µM,,> 100 µM,,> 100 µM,,> 100 µM,,> 100 µM,,> 100 µM,,> 100 µM
Cn1c(=S)c2[nH]c(SCCN3C(=O)c4ccccc4C3=O)nc2n(C)c1=O,,> 100 µM,,> 100 µM,,> 100 µM,,> 100 µM,,> 100 µM,,> 100 µM,,> 100 µM,,> 100 µM,,> 100 µM,,> 100 µM
NC(=S)N=Nc1c(O)c2ccccc2c2ccccc12,9.73 µM,> 100 µM,3.07 µM,11.4 µM,3.22 µM,> 55.4 µM,3.02 µM,10.2 µM,3.12 µM,12.6 µM,1.73 µM,3.47 µM,27.2 µM,> 100 µM,3.44 µM,12.1 µM,3.22 µM,9.66 µM,31.7 µM,88.2 µM
CC(=O)c1cc(C(=O)c2ccc3c(c2)Sc2ccccc2N3)c2c(C)cccn12,0.412 µM,83.4 µM,0.325 µM,24 µM,0.294 µM,> 100 µM,0.261 µM,0.838 µM,0.246 µM,> 100 µM,0.686 µM,> 100 µM,0.621 µM,> 100 µM,0.265 µM,40.4 µM,0.0328 µM,0.199 µM,0.488 µM,7.29 µM
Cn1c(=O)c2[nH]cnc2n(CC(N)=O)c1=O,,> 100 µM,,> 100 µM,,> 100 µM,,> 100 µM,,> 100 µM,,> 100 µM,,> 100 µM,,> 100 µM,,> 100 µM,,> 100 µM
Nc1ccccc1C#C/C=C\C#Cc1c(F)c(F)c(F)c(F)c1F,1.25 µM,21.7 µM,13 µM,25.7 µM,15.1 µM,30 µM,15.3 µM,32.9 µM,26 µM,55.4 µM,7.37 µM,20.5 µM,10.9 µM,24.5 µM,11.6 µM,25.5 µM,11.9 µM,31.3 µM,12.3 µM,30.5 µM
O=C1c2ccccc2C(=O)c2c(NCC3CO3)ccc(NCC3CO3)c21 (stereo not given),,33.3 µM,,8.38 µM,,> 22.5 µM,,15.1 µM,,> 39.3 µM,,2.06 µM,,15.9 µM,,58.8 µM,,20.1 µM,,5.57 µM
